Measurements as given in PubChem BioAssay AID248 (DTP/NCI, 2004).
Where “and” joins values, the source holds several entries; their conditions need not be identical. Identical values can stand only once. Inconclusive results and toxic doses are left out. No stated cut-off is given here; in the data, active means T/C of 150% or more; inactive means T/C below 125%.

Test system: L1210 leukemia ip in BDF1 mice, survival T/C
Assay: NCI In Vivo Anticancer Drug Screen. Data for tumor model L1210 Leukemia (intraperitoneal) in B6D2F1 (BDF1) mice
Conditions: endpoint: mean survival time, higher = longer survival
How it was run: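 In this screen, tumor-bearing mice given compound are compared to those given vehicle, and their survival values are reported as a treated-to-control quotient.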

[1] = dose: 100.0 mg/kg/injection, schedule: Q01DX009 (ip), vehicle: Klucel (hydroxypropylcellulose) (HPC)
[2] = dose: 200.0 mg/kg/injection, schedule: Q01DX009 (ip), vehicle: Klucel (hydroxypropylcellulose) (HPC)
[3] = dose: 400.0 mg/kg/injection, schedule: Q01DX009 (ip), vehicle: Klucel (hydroxypropylcellulose) (HPC)

Measured: T/C

CC(C)(C)CCCC1C(=O)N(c2ccccc2)N(c2ccccc2)C1=O
inactive: dose: 50.0 mg/kg/injection, schedule: Q01DX009 (ip), vehicle: Klucel (hydroxypropylcellulose) (HPC) 110 % of control | [1] 110 % of control | dose: 100.0 mg/kg/injection, schedule: Q04DX003 (ip), vehicle: Klucel (hydroxypropylcellulose) (HPC) 106 % of control | [2] 112 % of control | dose: 200.0 mg/kg/injection, schedule: Q04DX003 (ip), vehicle: Klucel (hydroxypropylcellulose) (HPC) 96 % of control | dose: 400.0 mg/kg/injection, schedule: Q04DX003 (ip), vehicle: Klucel (hydroxypropylcellulose) (HPC) 101 % of control

Cc1ccc(S(=O)(=O)OCCOCCOCCOCCOCCOCCOS(=O)(=O)c2ccc(C)cc2)cc1
inactive: dose: 100.0 mg/kg/injection, schedule: Q01DX001 (ip), vehicle: other 103 % of control | dose: 200.0 mg/kg/injection, schedule: Q01DX001 (ip), vehicle: other 98 % of control | dose: 400.0 mg/kg/injection, schedule: Q01DX001 (ip), vehicle: other 98 % of control

O=C(C=C(C(F)(F)F)C(F)(F)F)c1cccc(Cl)c1
inactive: dose: 6.25 mg/kg/injection, schedule: Q01DX009 (ip), vehicle: saline 100 % of control | dose: 6.25 mg/kg/injection, schedule: Q04DX003 (ip), vehicle: saline with Tween-80 96 % of control | dose: 12.5 mg/kg/injection, schedule: Q01DX009 (ip), vehicle: saline 100 % of control | dose: 12.5 mg/kg/injection, schedule: Q04DX003 (ip), vehicle: saline with Tween-80 107 % of control | dose: 25.0 mg/kg/injection, schedule: Q01DX009 (ip), vehicle: saline 97 % of control | dose: 25.0 mg/kg/injection, schedule: Q04DX003 (ip), vehicle: saline with Tween-80 100 % of control | dose: 50.0 mg/kg/injection, schedule: Q04DX003 (ip), vehicle: saline with Tween-80 100 % of control

CCOC(=O)C(C)(C)Oc1ccc(OC(C)(C)C(=O)OCC)cc1
inactive: [1] 93 % of control | [2] 100 % of control | [3] 102 % of control

CCC1(CC)CC1(Cl)Cl
inactive: dose: 75.0 mg/kg/injection, schedule: Q01DX001 (ip), vehicle: acetone 108 % of control | dose: 150.0 mg/kg/injection, schedule: Q01DX001 (ip), vehicle: acetone 101 % of control

CSc1cc(C)c(OC(=O)Nc2ccccc2F)c(CO)c1
inactive: dose: 100.0 mg/kg/injection, schedule: Q01DX009 (ip), vehicle: saline with Tween-80 97 % of control | dose: 200.0 mg/kg/injection, schedule: Q01DX009 (ip), vehicle: saline with Tween-80 98 % of control | dose: 400.0 mg/kg/injection, schedule: Q01DX009 (ip), vehicle: saline with Tween-80 114 % of control

Oc1ccc(Cl)cc1C=Nc1cnc2ccccc2c1
inactive: dose: 100.0 mg/kg/injection, schedule: Q01DX001 (ip), vehicle: carboxymethylcellulose (CMC) 88 % of control | dose: 400.0 mg/kg/injection, schedule: Q01DX001 (ip), vehicle: carboxymethylcellulose (CMC) 101 % of control

CCC(C)NC(=O)C1C2CC3OC(=O)C1C3C2 (centres undefined)
inactive: dose: 100.0 mg/kg/injection, schedule: Q04DX003 (ip), vehicle: saline with Tween-80 106 % of control and 98 % of control | dose: 200.0 mg/kg/injection, schedule: Q04DX003 (ip), vehicle: saline with Tween-80 101 % of control and 98 % of control | dose: 400.0 mg/kg/injection, schedule: Q04DX003 (ip), vehicle: saline with Tween-80 95 % of control and 98 % of control

O/N=C/c1ccco1
inactive: dose: 100.0 mg/kg/injection, schedule: Q04DX002 (ip), vehicle: saline with Tween-80 100 % of control | dose: 200.0 mg/kg/injection, schedule: Q04DX002 (ip), vehicle: saline with Tween-80 103 % of control | dose: 400.0 mg/kg/injection, schedule: Q04DX002 (ip), vehicle: saline with Tween-80 103 % of control

COc1ccc(C=C2CCC2)cc1
inactive: dose: 100.0 mg/kg/injection, schedule: Q04DX003 (ip), vehicle: gum acacia 95 % of control | dose: 200.0 mg/kg/injection, schedule: Q04DX003 (ip), vehicle: gum acacia 99 % of control | dose: 400.0 mg/kg/injection, schedule: Q04DX003 (ip), vehicle: gum acacia 99 % of control

CCCCCCN1CCCC(OC(=O)N(C)C)C1 (centres undefined)
inactive: dose: 25.0 mg/kg/injection, schedule: Q04DX002 (ip), vehicle: saline 113 % of control | dose: 50.0 mg/kg/injection, schedule: Q04DX002 (ip), vehicle: saline 103 % of control | dose: 100.0 mg/kg/injection, schedule: Q04DX002 (ip), vehicle: saline 100 % of control and 104 % of control

O=C1c2ccccc2-c2nc3cc4ccccc4cc3nc21
inactive: dose: 100.0 mg/kg/injection, schedule: Q01DX001 (ip), vehicle: Klucel (hydroxypropylcellulose) (HPC) 98 % of control | [1] 98 % of control | dose: 200.0 mg/kg/injection, schedule: Q01DX001 (ip), vehicle: Klucel (hydroxypropylcellulose) (HPC) 88 % of control | [2] 97 % of control | dose: 400.0 mg/kg/injection, schedule: Q01DX001 (ip), vehicle: Klucel (hydroxypropylcellulose) (HPC) 97 % of control | [3] 102 % of control
